From patent US6808721B2, “Methods for coating pharmaceutical core tablets” (Boehringer Ingelheim Pharmaceuticals, Inc., priority 2001, dated 2004)
In brackets after ≈: the same amount, converted by molar mass.

What was measured:
[1] = pKa of the drug; format: physicochemical
Protocol: (§1) At least seven polymorphs of BIRB 796 have been isolated (the melt point of the drug is about 152° C. and the pKa about 6.1). The polymorphs generally exist in the form of elongated needles. BIRB 796 is relatively poorly soluble in physiological environments. The solubility of polymorphic BIRB 796 drug substance (Form IV) has been determined to be about 0.5 ug/ml at pH 7.4 and about 10 mg/ml at pH 2.0.

[2] = Solubility of BIRB 796 drug substance; format: physicochemical; details: for solubility: polymorphic drug substance (Form IV)
Protocol: as §1

[3] = Discoloration on exposure to light or heat; format: physicochemical; details: in the presence of light
From the text: It has been discovered that BIRB 796 may lead to discoloration of a core tablet in which it is contained when that core tablet is exposed to light or heat. […] Tablet coatings preferably comprise 2-3%, more preferably about 2.5%, by weight of the BIRB 796 tablet. Masking of the color change may also be used to create a pharmaceutically acceptable dosage form, as for example, mixing dry colorants (including yellow no. 10 iron oxide lake) into the formulation.

[4] = tested on: proinflammatory cytokines, such as tumor necrosis factor (TNF) and interleukin-1 (IL-1); details: disclosed in PCT/US99/29165 and U.S. Pat. No. 6,319,921; cited from earlier work

pKa [1]: ~6.1 | solubility ([2]; aqueous buffer, pH 7.4): ~0.5 µg/mL (≈ 0.000948 mM) | aqueous solubility ([2]; in words): poor aqueous solubility | solubility ([2]; simulated gastric fluid, pH 2.0): ~10000 µg/mL (≈ 19 mM)
SMILES: Cc1ccc(-n2nc(C(C)(C)C)cc2NC(=O)Nc2ccc(OCCN3CCOCC3)c3ccccc23)cc1 [BIRB 796, 1-(5-tert-butyl-2-p-tolyl-2H-pyrazol-3-yl)-3-[4-(2-morpholin-4-yl-ethoxy)-naphthalen-1-yl]-urea]
discoloration [3]: tendency to discolor in the presence of light | inhibitory activity with respect to proinflammatory cytokines [4]: unexpectedly significant inhibitory activity
